Our source for the GI50 and TGI values is PubChem BioAssay (NCI).

Common to all, as to assay: NCI anticancer screen, dose series, 48 h
Test [1] has as its system CAKI-1 renal.
Test [2] has as its system HOP-62 NSCLC.
Test [3] deals with MOLT-4 leukemia.
Test [4] deals with OVCAR-4 ovarian.
For test [5], the system named is OVCAR-5 ovarian.
The test system of test [6] is OVCAR-8 ovarian.
In test [7] the test system is SK-MEL-2 melanoma.
Test [8] deals with SK-OV-3 ovarian.
Test [9] relates to SN12C renal.
Test [10] has as its system SR leukemia.

SMILES strings stand for the structures.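 Interpolation was linear, between the two tested concentrations surrounding the appropriate level; five concentrations were tested over 48 hours in 96-well plates. GI50 is the concentration that inhibits growth by half. The concentration for full growth arrest is given as TGI.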 Where only a bound is given, the exact number is not on record here.

As for `COc1ccc(/C=C2\CCCC3=C2NC(C)=NC3c2ccc(OC)c(OC)c2)cc1OC` (stereo not drawn), the GI50 in test [1] is 21.4 µM; in [2], 3.75 µM; in [3], 24.8 µM; in test [4] it was 12.4 µM; in [5], 71 µM; in test [6] it was 4.68 µM. Besides, the GI50 in test [7] is 15.9 µM; in test [8], 19.2 µM; in test [9] it was 63.9 µM; in test [10], 1.99 µM. Moreover, the TGI was greater than 100 µM in [1]; 38.8 µM in [2]; greater than 100 µM in test [3]; greater than 100 µM in test [4]; greater than 100 µM in test [5]; greater than 100 µM in [6]. Moreover, the TGI in test [7], in [8], in test [9] and in test [10] was greater than 100 µM each time.
`O=c1cccccc1NCCCCCCCCCNc1cccccc1=O`: the TGI in test [1] is greater than 100 µM; in test [2], 35.7 µM; in test [3] it was 24.9 µM; in test [4], greater than 100 µM; in test [5], 58 µM; in test [6] it was 34.7 µM. In addition, the TGI in test [7] came to 46.8 µM; in test [8] it was 99.8 µM; in [9] it was 62.2 µM; in test [10] it was 45.7 µM.
`CCOC(=O)N1C2C=C(C)C(C3C(C)C(=O)N31)N(C(=O)c1ccccc1)O2` (stereo not drawn): the TGI in test [1], in test [2], in test [3], in test [4], in test [5] and in test [6] was greater than 100 µM each time. Also, the TGI in test [7], in test [8], in test [9] and in test [10] was greater than 100 µM in each case.
For `COc1ccc2c(c1)C(=O)c1c-2n(CCCN2CCOCC2)c(=O)c2ccccc12`, the GI50 is 1.79 µM in test [1]; 1.7 µM in test [2]; 1.47 µM in [3]; 4.57 µM in [4]; 6.18 µM in test [5]; 3.45 µM in test [6]. Moreover, the GI50 was 14.5 µM in test [7], 3.27 µM in test [8], 4.25 µM in test [9] and 0.579 µM in [10]. For the same molecule, the TGI is 8.07 µM in [1]; 6.16 µM in test [2]; greater than 100 µM in test [3]; greater than 100 µM in [4]; greater than 100 µM in test [5]; greater than 100 µM in test [6]. Also, the TGI in test [7] is 63.4 µM; in test [8] it was 12.1 µM; in test [9], greater than 100 µM; in test [10], greater than 32.6 µM.
With `Clc1ccc(CN2COc3c(cc(Cl)c4cccnc34)C2)cc1`, the TGI in test [1] worked out at 12.6 µM; in test [2], 3.35 µM; in test [3] it was 5.02 µM; in test [4], 8.26 µM; in test [5], 8.11 µM; in [6] it was 5.05 µM. The TGI in test [7] stood at 3.87 µM; in test [8] it was 13.3 µM; in test [9], 15.6 µM; in [10] it was 6.88 µM.
Take `Fc1ccc(Nc2nc(NCCNc3ccnc4cc(Cl)ccc34)nc(N3CCOCC3)n2)cc1`: the GI50 in test [1] was 5.59 µM; in test [2], 13.4 µM; in test [3], 4.16 µM; in [4], 10.7 µM; in test [5] it was 17.6 µM; in test [6], 11.6 µM. In addition, the GI50 is 2.2 µM in [7], 11.9 µM in [8], 11.6 µM in test [9] and 2.44 µM in test [10]. Moreover, the TGI in test [1] stood at 19.5 µM; in [2] it was 26.5 µM; in test [3], 16.5 µM; in [4], 23.1 µM; in test [5], 32.1 µM; in test [6] it was 40.6 µM. Further, the TGI in test [7] is 4.51 µM; in test [8], 24.6 µM; in test [9], 25 µM; in [10], 7.6 µM.
With `Cc1ccc2c(c1)ncn2-c1ncnc2c1CC(C)c1ccccc1N2C` (stereo not drawn), the GI50 is 0.127 µM in [1]; 0.174 µM in test [2]; 0.0607 µM in test [3]; 0.624 µM in test [4]; 0.381 µM in [6]; 1.13 µM in test [7]. For the same molecule, the GI50 in [8] is 0.139 µM; in [9], 0.444 µM; in [10], 0.0362 µM. Also, the TGI in test [1] was determined as 13.7 µM; in test [2], 13.6 µM; in test [3], 4.36 µM; in test [4], 24.7 µM; in test [6], 22.9 µM; in [7], 18.3 µM. In addition, the TGI is 17.7 µM in [8], 15.6 µM in [9] and 1.98 µM in test [10].
